The record followed here is patent publication EP3454861B1, “BENZOXAZINE OR QUINAZOLINE DERIVATIVES FOR USE IN THE TREATMENT OF ALZHEIMER'S DISEASE” (Biocodex, priority 2016, dated 2017).

For assay [1], the system named is Bcl2. As to the kind of experiment: ELISA of Bcl2 in mouse hippocampus after Aβ25-35. The assay is classed as in vivo, souris. The text has this: (§1) Le 1^er jour : une version « mélangée » (scrambled) du peptide amyloïde β25-35 (Sc.Aβ, témoin négatif) ou le peptide amyloïde β25-35 (Aβ25-35) est injecté par voie intra-cérébroventriculaire (ICV) (le peptide Aβ25-35 provoque l'intoxication cellulaire). Entre le 1^er jour et le 10^ème jour, les traitements sont administrés une fois par jour par voie intrapéritonéale (IP).
A la fin de la session de rétention d'évitement passif, le 10^ème jour, les animaux sont sacrifiés par décapitation. L'hippocampe et le cortex frontal sont disséqués et congelés dans l'azote liquide. L'hippocampe est utilisé pour mesurer le taux de peroxydation lipidique à l'aide d'une méthode colorimétrique et pour évaluer les taux de 4 marqueurs biochimiques par des tests ELISA. Le cortex est conservé à -80°C en attente d'analyses supplémentaires. Les plasmas sont également conservés en attente d'analyses supplémentaires. Les échantillons biologiques sont jetés après 3 mois.
Pour tous les dosages, les […] sont homogénéisés, après décongélation, dans un tampon Tris (Tris 50 mM, 150 mM NaCl, pH 7,5) et traités par ultrasons pendant 20 secondes. […] Pour chaque dosage, l'absorbance est lue à 450 nm et la concentration est calculée en utilisant la courbe standard. Les résultats sont exprimés en pg ou ng de marqueur par mg de tissu et en pourcentage de solution Sc.Aβ + véhicule. 6 échantillons par groupe (n = 36 kits ELISA) sont dosés en double.
In general terms: In an ELISA, binding on a coated surface is turned into a signal by an enzyme label.

Assay [2] deals with protéine Tau. As to the kind of experiment: Tau hyperphosphorylation in cortical neurons after Aβ1-42. The assay is classed as cell-based, rats. To be noted: Rattus norvegicus, Cortical neurone, Aβ1-42 2,5 µM, 16 h (Aβ1-42 alone 183%), read-out: hyperphosphorylation de Tau. The method, then: Des neurones corticaux de rats sont mis en culture comme dans la méthode décrite par Singer (1999) J. Neurosci. 19:2455-2463. Des rats femelles enceintes de 15 jours sont tuées par dislocation des cervicales (Rats Wistar, Janvier) et le fœtus est retiré de l'utérus. Les cortex sont prélevés et placés dans un milieu glacé de Leibovitz (L15, Panbiotech, Réf : P04-27055, lot : 9310614) contenant 2% de pénicilline (10 000 U/ml) et de streptomycine (10 mg/ml) (PS, Panbiotec, Réf : P06-07100, lot : 48101114) et 1% de sérum-albumine bovine (BSA, Panbiotech, Réf : P06-1391100, lot : H140603). Les cortex sont dissociés par trypsination (0,05% Panbiotech, Réf : P10-023100, lot : 5890314) pendant 20 minutes à 37°C. La réaction est stoppée par addition d'un milieu Eagle modifié de Dulbecco (DMEM, Panbiotech, réf P04-03600, lot : 9670913) contenant de la DNase I grade Il (0,1 mg/ml Panbiotech, Réf : P60-37780100, lot : H140508) et 10 % de sérum de veau fœtal (FCS, Invitrogen, Réf : 10270 à 098, lot : 41Q4120K). Les cellules sont dissociées mécaniquement par 3 passages à travers une pipette de 10 ml. Les cellules sont ensuite centrifugées à 515 g pendant 10 minutes à 4°C. Le surnageant est éliminé et les cellules sont remises en suspension dans un milieu de culture Neurobasal (Nb, Invitrogen, Réf : 21103, lot : 1608692) supplémenté avec 2% de B27 (Invitrogen, Réf : 17504, lot : 1589889), 2 mM de L-glutamine (Panbiotech, Réf : P04-80100, lot : 6620314), 2% de la solution PS et 10 ng/ml de facteur neurotrophique dérivé du cerveau (BDNF, PanBiotech, Réf : CB-1115002, lot : 4810114). Les cellules sont ensemencées à une densité de 30 000 cellules/puits dans des plaques de 96 puits pré-enduites de poly-L-lysine (10 ng/ml, Greiner Réf : 655930, lot : E14021HD) et cultivées à 37 °C dans une atmosphère humidifiée avec 95% d'air et 5% de CO2 pour l'évaluation de la survie des neurones (analyse de MAP2 par immuno-coloration) (6 puits/condition, 1 culture).
La préparation du peptide amyloïde β1-42 (Aβ1-42) est réalisée en suivant la procédure par Callizot et al. (2013) Neurosci. Res. 91:706-16. […]

Assay [3] concerns modèle murin de maladie d'Alzheimer par administration du peptide amyloïde β25-35. As to the kind of experiment: Passive avoidance test (long-term contextual memory), retention session, Aβ25-35 mouse model. The format is in vivo, souris. The following applies: Aβ25-35 9 nmol ICV, day 10.
Source text: as §1

`CCNC1=Nc2ccc(Cl)cc2C(C)(c2ccccc2)O1` (stereo not drawn) [Etifoxine, chlorhydratede 6-chloro-2-éthylamino-4-méthyl-4-phényl-4H-[3,1]benzoxazine]: the “Taux de protéine Bcl2” value in assay [1] (Aβ25-35/Etifoxine 12.5 mg/kg IP) was 97,2 ± 2,1 % de Sc.Aβ/V; in assay [1] (Aβ25-35/Etifoxine 25 mg/kg IP), 99,4 ± 2,3 % de Sc.Aβ/V; in assay [1] (Aβ25-35/Etifoxine 50 mg/kg IP), 102,3 ± 3,2 % de Sc.Aβ/V. The activity at 1 µM in assay [2] (étifoxine 1 µM) stood at 114%. In addition, in assay [2] (étifoxine 3 µM), the activity at 3 µM was determined as 104%. The activity at 10 µM in assay [2] (étifoxine 10 µM) came to 97.4%. In addition, the “temps de fuite lors de la session de rétention, Moyenne” value in assay [3] (Etifoxine 25 mg/kg IP once daily) is reported as 22,4 ± 2,4%; in assay [3] (Etifoxine 50 mg/kg IP once daily) it was 21,6 ± 3,0%. In addition, the “temps de latence lors la session de rétention, Moyenne” value in assay [3] (Etifoxine 12,5 mg/kg IP once daily) was 208,1 ± 17,4%.
